Measurements from ChEMBL document CHEMBL5584301, “Radioactive ADME Demonstrates ARV-110's High Druggability Despite Low Oral Bioavailability” (J Med Chem, 2024).
The source made the active and inactive calls. No cut-off for these calls is given here.

Tests used:
[1] = Drug metabolism in Long-Evans rat at 45 mg/kg, po by UHPLC-HR-MS analysis; format: ADME, organism-based; conditions: in vivo
[2] = Cmax in C57BL/6J mouse harderian gland at 0.5 mg/kg, po measured at 48 hrs by QWBA analysis; format: ADME, organism-based; conditions: in vivo
[3] = Cmax in C57BL/6J mouse uveal tract at 0.5 mg/kg, po measured at 168 hrs by QWBA analysis; format: ADME, organism-based; conditions: in vivo
[4] = Drug recovery in Long-Evans rat eye at 45 mg/kg, po measured for 72 hrs by UHPLC analysis; format: ADME, organism-based; conditions: in vivo
[5] = Ratio of drug exposure in tumor to plasma of BALB/c mouse at 0.5 mg/kg, po; format: ADME, organism-based; conditions: tumor and plasma
[6] = Cmax in BALB/c nude mouse at 0.5 mg/kg, po measured at 48 hrs; format: ADME, organism-based; conditions: in vivo
[7] = Drug recovery in male Sprague-Dawley rat bile duct at 45 mg/kg, po measured upto 72 hrs by UHPLC analysis; format: ADME, organism-based; conditions: read-out: Drug recovery
[8] = Drug recovery in female Sprague-Dawley rat feces at 45 mg/kg, po measured upto 48 hrs by UHPLC analysis; format: ADME, organism-based; conditions: faeces, read-out: Drug recovery
[9] = Cmax in C57BL/6J mouse eye at 0.5 mg/kg, po measured at 168 hrs by QWBA analysis; format: ADME, organism-based; conditions: in vivo
[10] = Ratio of drug exposure in pigmented skin to plasma of C57BL/6J mouse at 0.5 mg/kg, po; format: ADME, organism-based; conditions: pigmented skin and plasma
[11] = Drug recovery in male Sprague-Dawley rat urine at 45 mg/kg, po measured upto 96 hrs by UHPLC analysis; format: ADME, organism-based; conditions: read-out: Drug recovery
[12] = Drug recovery in male Sprague-Dawley rat feces at 45 mg/kg, po measured upto 48 hrs by UHPLC analysis; format: ADME, organism-based; conditions: faeces, read-out: Drug recovery
[13] = Drug recovery in female Sprague-Dawley rat bile duct at 45 mg/kg, po measured upto 72 hrs by UHPLC analysis; format: ADME, organism-based; conditions: read-out: Drug recovery
[14] = Drug distribution in BALB/c mouse digestive tract at 0.5 mg/kg, po by QWBA analysis; format: ADME, organism-based; conditions: in vivo
[15] = Drug distribution in BALB/c mouse kidney at 0.5 mg/kg, po by QWBA analysis; format: ADME, organism-based; conditions: in vivo
[16] = Cmax in BALB/c nude mouse at 0.5 mg/kg, po measured at 6 hrs; format: ADME, organism-based; conditions: in vivo
[17] = Drug recovery in female Sprague-Dawley rat urine at 45 mg/kg, po measured upto 96 hrs by UHPLC analysis; format: ADME, organism-based; conditions: read-out: Drug recovery
[18] = Drug distribution in BALB/c mouse harderian gland at 0.5 mg/kg, po by QWBA analysis; format: ADME, organism-based; conditions: in vivo
[19] = AUC (0 to t ) in C57BL/6J mouse uveal tract at 0.5 mg/kg, po measured at 168 hrs by QWBA analysis; format: ADME, organism-based; conditions: in vivo
[20] = Drug distribution in BALB/c mouse liver at 0.5 mg/kg, po by QWBA analysis; format: ADME, organism-based; conditions: in vivo
[21] = Stability in rat plasma assessed as drug hydrolysis measured after 2 hrs by LC-MS/MS analysis; format: ADME, cell-free
[22] = Tmax in Sprague-Dawley rat at 22.5 mg/kg, po with free access to food and water before administration by LSC analysis; format: ADME, organism-based; conditions: in vivo
[23] = Half life in Sprague-Dawley rat at 45 mg/kg, po by LSC analysis; format: ADME, organism-based; conditions: in vivo
[24] = Drug recovery in Sprague-Dawley rat bile duct at 45 mg/kg, po measured over 72 hrs by UHPLC analysis; format: ADME, organism-based; conditions: read-out: Drug recovery
[25] = AUC (0 to infinity) in Sprague-Dawley rat at 45 mg/kg, po by LSC analysis; format: ADME, organism-based; conditions: in vivo
[26] = Tmax in Sprague-Dawley rat at 45 mg/kg, po by LSC analysis; format: ADME, organism-based; conditions: in vivo
[27] = Stability in phosphate buffer at 1 uM; format: physicochemical
Melanin [28] = test: Binding affinity to Melanin (unknown origin) assessed as binding ratio at 10 microg/ml measured for 2 hrs; conditions: dose 10.0 µg/ml
[29] = AUC (0 to t) in Sprague-Dawley rat at 22.5 mg/kg, po with free access to food and water before administration by LSC analysis; format: ADME, organism-based; conditions: in vivo
[30] = Oral bioavailability in Sprague-Dawley rat at 22.5 mg/kg with free access to food and water before administration by LSC analysis; format: ADME, organism-based; conditions: in vivo
[31] = AUC (0 to infinity) in Sprague-Dawley rat at 22.5 mg/kg, po with free access to food and water before administration by LSC analysis; format: ADME, organism-based; conditions: in vivo
[32] = AUC (0 to t) in Sprague-Dawley rat at 22.5 mg/kg, po by LSC analysis; format: ADME, organism-based; conditions: in vivo
[33] = Oral bioavailability in Sprague-Dawley rat at 22.5 mg/kg by LSC analysis; format: ADME, organism-based; conditions: in vivo
[34] = Cmax in Sprague-Dawley rat at 22.5 mg/kg, po with free access to food and water before administration by LSC analysis; format: ADME, organism-based; conditions: in vivo
[35] = Half life in Sprague-Dawley rat at 22.5 mg/kg, po with free access to food and water before administration by LSC analysis; format: ADME, organism-based; conditions: in vivo
[36] = Stability in rat plasma assessed as drug degradation measured after 2 hrs by LC-MS/MS analysis; format: ADME, cell-free
[37] = AUC (0 to t) in Sprague-Dawley rat at 45 mg/kg, po by LSC analysis; format: ADME, organism-based; conditions: in vivo
[38] = Half life in Sprague-Dawley rat at 22.5 mg/kg, po by LSC analysis; format: ADME, organism-based; conditions: in vivo
[39] = Drug recovery in Sprague-Dawley rat urine at 45 mg/kg, po measured over 168 hrs by UHPLC analysis; format: ADME, organism-based; conditions: read-out: Drug recovery
[40] = Cmax in Sprague-Dawley rat at 22.5 mg/kg, po by LSC analysis; format: ADME, organism-based; conditions: in vivo
Melanin [41] = test: Binding affinity to Melanin (unknown origin) assessed as binding ratio at 1 microg/ml measured for 2 hrs; conditions: dose 1.0 µg/ml
[42] = Tmax in Sprague-Dawley rat at 22.5 mg/kg, po by LSC analysis; format: ADME, organism-based; conditions: in vivo
[43] = Cmax in Sprague-Dawley rat at 45 mg/kg, po by LSC analysis; format: ADME, organism-based; conditions: in vivo
Melanin [44] = test: Binding affinity to Melanin (unknown origin) assessed as binding ratio at 0.1 microg/ml measured for 2 hrs; conditions: dose 0.1 µg/ml
[45] = Volume of distribution at steady state in Sprague-Dawley rat at 22.5 mg/kg, iv by LSC analysis; format: ADME, organism-based; conditions: in vivo
[46] = Stability in rat plasma measured after 2 hrs by LC-MS/MS analysis; format: ADME, cell-free
[47] = Oral bioavailability in Sprague-Dawley rat at 45 mg/kg by LSC analysis; format: ADME, organism-based; conditions: in vivo
[48] = AUC (0 to infinity) in Sprague-Dawley rat at 22.5 mg/kg, po by LSC analysis; format: ADME, organism-based; conditions: in vivo
[49] = Drug recovery in Sprague-Dawley rat feces at 45 mg/kg, po measured over 168 hrs by UHPLC analysis; format: ADME, organism-based; conditions: faeces, read-out: Drug recovery
DU-145 = test: Antitumor activity against human DU-145 cells xenografted in BALB/c nude mouse assessed as reduction in tumor size at 0.5 mg/kg measured daily for 14 days; format: functional, organism-based; conditions: time 14.0 day

N#Cc1ccc(O[C@H]2CC[C@H](NC(=O)c3ccc(N4CCC(CN5CCN(c6cc7c(cc6F)[14C](=O)N(C6CCC(=O)NC6=O)[14C]7=O)CC5)CC4)nn3)CC2)cc1Cl (stereo not given in full)
Drug metabolism [1]: Metabolite_Detected | Cmax [2]: 2950 ngequiv/g | Cmax [3]: 9621 ngequiv/g | Drug recovery [4]: 55.17% | Kp [5]: 3.99 | Cmax [6]: 944 ngequiv/g | dose excreted at 72 h [7]: 4.55% | dose excreted at 48 h [8]: 88% | Cmax [9]: 3185 ngequiv/g | Kp [10]: 1.52 | dose excreted at 96 h [11]: 2.51% | dose excreted at 48 h [12]: 92% | dose excreted at 72 h [13]: 4.49% | Drug uptake [14]: Active | Drug uptake [15]: Active | Cmax [16]: 3165 ngequiv/g | dose excreted at 96 h [17]: 4.25% | Drug uptake [18]: Active | AUCt [19]: 2717032 ng·h/g | Drug uptake [20]: Active

N#Cc1ccc(O[C@H]2CC[C@H](NC(=O)c3ccc(N4CCC(CN5CCN(c6cc7c(cc6F)C(=O)N(C6CCC(=O)NC6=O)C7=O)CC5)CC4)nn3)CC2)cc1Cl (stereo not given in full) [BAVDEGALUTAMIDE]
Stability [21]: Stable | Tmax [22]: 8.5 h | t1/2 [23]: 15.9 h | dose excreted at 72 h [24]: 4.54% | AUC [25]: 12515 ng·h/mL | Tmax [26]: 5.5 h | Stability [27]: Stable | inhibition (Melanin [28]): 82.2% | AUCt [29]: 23022 ng·h/mL | F [30]: 20.97% | AUC [31]: 23274 ng·h/mL | AUCt [32]: 11740 ng·h/mL | F [33]: 10.75% | Cmax [34]: 842 ng/mL | t1/2 [35]: 14.8 h | Stability [36]: Stable | AUCt [37]: 12345 ng·h/mL | t1/2 [38]: 15.4 h | dose excreted at 168 h [39]: 3.38% | Cmax [40]: 448 ng/mL | inhibition (Melanin [41]): 90.1% | Tmax [42]: 7 h | Cmax [43]: 490 ng/mL | inhibition (Melanin [44]): 91% | Vdss [45]: 2.04 L/kg | Stability [46]: Unstable | F [47]: 5.62% | AUC [48]: 11881 ng·h/mL | dose excreted at 168 h [49]: 90% | Activity (DU-145): Active
